Data as given in PubChem BioAssay (NCI).
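Results reflect a 48-hour exposure of cells in 96-well plates to compound at five concentrations. The concentration for full growth arrest is given as TGI.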

Legend:
Assay in all cases: growth of human tumour cells (NCI), 48 h
EKVX NSCLC = system: EKVX NSCLC
K-562 leukemia = system: K-562 leukemia
SNB-19 CNS = system: SNB-19 CNS
MDA-MB-231 breast = system: MDA-MB-231 breast
CAKI-1 renal = system: CAKI-1 renal
SW-620 colon = system: SW-620 colon
TK-10 renal = system: TK-10 renal
RXF 393 renal = system: RXF 393 renal
OVCAR-5 ovarian = system: OVCAR-5 ovarian
NCI-H460 lung = system: NCI-H460 lung
MOLT-4 leukemia = system: MOLT-4 leukemia
OVCAR-4 ovarian = system: OVCAR-4 ovarian
SNB-75 CNS = system: SNB-75 CNS
A498 renal = system: A498 renal
SR leukemia = system: SR leukemia
786-0 renal = system: 786-0 renal
HCT-116 colon = system: HCT-116 colon
UO-31 renal = system: UO-31 renal
COLO 205 colon = system: COLO 205 colon
HOP-92 NSCLC = system: HOP-92 NSCLC
HOP-62 NSCLC = system: HOP-62 NSCLC
SK-OV-3 ovarian = system: SK-OV-3 ovarian
U251 CNS = system: U251 CNS
OVCAR-8 ovarian = system: OVCAR-8 ovarian
IGROV1 ovarian = system: IGROV1 ovarian
OVCAR-3 ovarian = system: OVCAR-3 ovarian
SN12C renal = system: SN12C renal
UACC-62 melanoma = system: UACC-62 melanoma
T-47D breast = system: T-47D breast
SF-268 CNS = system: SF-268 CNS
CCRF-CEM leukemia = system: CCRF-CEM leukemia
A549 NSCLC = system: A549 NSCLC
DU-145 prostate = system: DU-145 prostate
SK-MEL-28 melanoma = system: SK-MEL-28 melanoma
KM12 colon = system: KM12 colon
HCT-15 colon = system: HCT-15 colon
MDA-MB-435 = system: MDA-MB-435
SK-MEL-5 melanoma = system: SK-MEL-5 melanoma
SF-295 CNS = system: SF-295 CNS
RPMI-8226 leukemia = system: RPMI-8226 leukemia
HCC-2998 colon = system: HCC-2998 colon
LOX IMVI melanoma = system: LOX IMVI melanoma
ACHN renal = system: ACHN renal
SK-MEL-2 melanoma = system: SK-MEL-2 melanoma
BT-549 breast = system: BT-549 breast
MDA-N = system: MDA-N
HT29 colon = system: HT29 colon
NCI-H23 lung = system: NCI-H23 lung
HS 578T breast = system: HS 578T breast
PC-3 prostate = system: PC-3 prostate
UACC-257 melanoma = system: UACC-257 melanoma
NCI-H226 lung = system: NCI-H226 lung
MALME-3M melanoma = system: MALME-3M melanoma
NCI/ADR-RES ovarian = system: NCI/ADR-RES ovarian
SF-539 CNS = system: SF-539 CNS
MCF7 breast = system: MCF7 breast
NCI-H522 lung = system: NCI-H522 lung
HL-60(TB) leukemia = system: HL-60(TB) leukemia
M14 melanoma = system: M14 melanoma

CCC(C)(O)c1cnc(CC(C)C)c(=O)n1O (centres undefined)
TGI (EKVX NSCLC): > 100 µM
TGI (K-562 leukemia): 47.8 µM
TGI (SNB-19 CNS): > 100 µM
TGI (MDA-MB-231 breast): > 100 µM
TGI (CAKI-1 renal): > 100 µM
TGI (SW-620 colon): > 100 µM
TGI (TK-10 renal): > 100 µM
TGI (RXF 393 renal): > 100 µM
TGI (OVCAR-5 ovarian): 25.8 µM
TGI (NCI-H460 lung): 81.8 µM
TGI (MOLT-4 leukemia): 48.6 µM
TGI (OVCAR-4 ovarian): > 100 µM
TGI (SNB-75 CNS): > 100 µM
TGI (A498 renal): > 100 µM
TGI (SR leukemia): 62.6 µM
TGI (786-0 renal): > 100 µM
TGI (HCT-116 colon): > 100 µM
TGI (UO-31 renal): > 100 µM
TGI (COLO 205 colon): > 100 µM
TGI (HOP-92 NSCLC): > 100 µM
TGI (HOP-62 NSCLC): > 100 µM
TGI (SK-OV-3 ovarian): > 100 µM
TGI (U251 CNS): > 100 µM
TGI (OVCAR-8 ovarian): > 100 µM
TGI (IGROV1 ovarian): > 100 µM
TGI (OVCAR-3 ovarian): 81.6 µM
TGI (SN12C renal): > 100 µM
TGI (UACC-62 melanoma): > 100 µM
TGI (T-47D breast): > 100 µM
TGI (SF-268 CNS): > 100 µM
TGI (CCRF-CEM leukemia): 54.1 µM
TGI (A549 NSCLC): > 100 µM
TGI (DU-145 prostate): > 100 µM
TGI (SK-MEL-28 melanoma): > 100 µM
TGI (KM12 colon): > 100 µM
TGI (HCT-15 colon): > 100 µM
TGI (MDA-MB-435): > 100 µM
TGI (SK-MEL-5 melanoma): > 100 µM
TGI (SF-295 CNS): > 100 µM
TGI (RPMI-8226 leukemia): 28.5 µM
TGI (HCC-2998 colon): > 100 µM
TGI (LOX IMVI melanoma): > 100 µM
TGI (ACHN renal): > 100 µM
TGI (SK-MEL-2 melanoma): > 100 µM
TGI (BT-549 breast): > 100 µM
TGI (MDA-N): > 100 µM
TGI (HT29 colon): > 100 µM
TGI (NCI-H23 lung): > 100 µM
TGI (HS 578T breast): > 100 µM
TGI (PC-3 prostate): > 100 µM
TGI (UACC-257 melanoma): > 100 µM

C[C@@H](Cl)[C@H]1CCCN(Cc2ccc(Br)cc2)C1
TGI (EKVX NSCLC): > 12.5 µM
TGI (K-562 leukemia): > 12.5 µM
TGI (SNB-19 CNS): > 12.5 µM
TGI (MDA-MB-231 breast): > 12.5 µM
TGI (CAKI-1 renal): > 12.5 µM
TGI (SW-620 colon): > 12.5 µM
TGI (NCI-H226 lung): > 12.5 µM
TGI (TK-10 renal): > 12.5 µM
TGI (MALME-3M melanoma): > 12.5 µM
TGI (RXF 393 renal): > 12.5 µM
TGI (OVCAR-5 ovarian): > 12.5 µM
TGI (NCI-H460 lung): > 12.5 µM
TGI (MOLT-4 leukemia): > 12.5 µM
TGI (OVCAR-4 ovarian): > 12.5 µM
TGI (SNB-75 CNS): > 12.5 µM
TGI (NCI/ADR-RES ovarian): > 12.5 µM
TGI (A498 renal): > 12.5 µM
TGI (SR leukemia): > 12.5 µM
TGI (SF-539 CNS): > 12.5 µM
TGI (786-0 renal): > 12.5 µM
TGI (UO-31 renal): > 12.5 µM
TGI (COLO 205 colon): > 12.5 µM
TGI (HOP-92 NSCLC): > 12.5 µM
TGI (HOP-62 NSCLC): > 12.5 µM
TGI (SK-OV-3 ovarian): > 12.5 µM
TGI (MCF7 breast): > 12.5 µM
TGI (U251 CNS): > 12.5 µM
TGI (OVCAR-8 ovarian): > 12.5 µM
TGI (IGROV1 ovarian): > 12.5 µM
TGI (NCI-H522 lung): > 12.5 µM
TGI (OVCAR-3 ovarian): > 12.5 µM
TGI (UACC-62 melanoma): > 12.5 µM
TGI (T-47D breast): > 12.5 µM
TGI (SF-268 CNS): > 12.5 µM
TGI (CCRF-CEM leukemia): > 12.5 µM
TGI (A549 NSCLC): > 12.5 µM
TGI (DU-145 prostate): > 12.5 µM
TGI (SK-MEL-28 melanoma): > 12.5 µM
TGI (KM12 colon): > 12.5 µM
TGI (HCT-15 colon): > 12.5 µM
TGI (MDA-MB-435): > 12.5 µM
TGI (SK-MEL-5 melanoma): > 12.5 µM
TGI (SF-295 CNS): > 12.5 µM
TGI (RPMI-8226 leukemia): > 12.5 µM
TGI (HCC-2998 colon): > 12.5 µM
TGI (HL-60(TB) leukemia): > 12.5 µM
TGI (LOX IMVI melanoma): > 12.5 µM
TGI (ACHN renal): > 12.5 µM
TGI (SK-MEL-2 melanoma): > 12.5 µM
TGI (MDA-N): > 12.5 µM
TGI (M14 melanoma): > 12.5 µM
TGI (HT29 colon): > 12.5 µM
TGI (NCI-H23 lung): > 12.5 µM
TGI (HS 578T breast): > 12.5 µM
TGI (PC-3 prostate): > 12.5 µM
TGI (UACC-257 melanoma): > 12.5 µM

O=C(O)c1cc(-c2ccc3c(O)c(O)ccc3c2)ccc1O
TGI (EKVX NSCLC): > 75 µM
TGI (K-562 leukemia): 32.2 µM
TGI (SNB-19 CNS): > 75 µM
TGI (MDA-MB-231 breast): 54.1 µM
TGI (CAKI-1 renal): 25.6 µM
TGI (SW-620 colon): 36.8 µM
TGI (NCI-H226 lung): > 75 µM
TGI (TK-10 renal): > 75 µM
TGI (MALME-3M melanoma): > 75 µM
TGI (RXF 393 renal): 47.8 µM
TGI (OVCAR-5 ovarian): 26.2 µM
TGI (NCI-H460 lung): > 7.5 µM
TGI (MOLT-4 leukemia): 33.2 µM
TGI (OVCAR-4 ovarian): 27 µM
TGI (SNB-75 CNS): > 75 µM
TGI (NCI/ADR-RES ovarian): > 75 µM
TGI (A498 renal): > 75 µM
TGI (SR leukemia): 42 µM
TGI (SF-539 CNS): > 75 µM
TGI (786-0 renal): > 75 µM
TGI (HCT-116 colon): 30.3 µM
TGI (UO-31 renal): > 75 µM
TGI (COLO 205 colon): > 75 µM
TGI (HOP-62 NSCLC): > 75 µM
TGI (SK-OV-3 ovarian): > 75 µM
TGI (MCF7 breast): 25.1 µM
TGI (U251 CNS): 26.1 µM
TGI (OVCAR-8 ovarian): > 75 µM
TGI (IGROV1 ovarian): > 75 µM
TGI (NCI-H522 lung): > 75 µM
TGI (OVCAR-3 ovarian): > 75 µM
TGI (SN12C renal): 30.8 µM
TGI (UACC-62 melanoma): > 75 µM
TGI (T-47D breast): > 75 µM
TGI (SF-268 CNS): > 75 µM
TGI (CCRF-CEM leukemia): 33.6 µM
TGI (A549 NSCLC): > 75 µM
TGI (DU-145 prostate): > 75 µM
TGI (SK-MEL-28 melanoma): > 75 µM
TGI (KM12 colon): > 75 µM
TGI (HCT-15 colon): > 75 µM
TGI (MDA-MB-435): > 75 µM
TGI (SK-MEL-5 melanoma): > 75 µM
TGI (SF-295 CNS): 29.1 µM
TGI (RPMI-8226 leukemia): 49.1 µM
TGI (HCC-2998 colon): > 75 µM
TGI (HL-60(TB) leukemia): 53.5 µM
TGI (LOX IMVI melanoma): 34.9 µM
TGI (ACHN renal): > 75 µM
TGI (SK-MEL-2 melanoma): > 75 µM
TGI (MDA-N): > 75 µM
TGI (M14 melanoma): 70.6 µM
TGI (HT29 colon): 42.5 µM
TGI (NCI-H23 lung): > 75 µM
TGI (HS 578T breast): > 75 µM
TGI (PC-3 prostate): > 75 µM
TGI (UACC-257 melanoma): > 75 µM
